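All cell lines were grown in 96-well plates and treated with compound for 48 hours. At the TGI there is no net growth.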
Assays:
Assay in all cases: NCI anticancer screen, dose series, 48 h
UO-31 renal = system: UO-31 renal
SR leukemia = system: SR leukemia
MALME-3M melanoma = system: MALME-3M melanoma
NCI/ADR-RES ovarian = system: NCI/ADR-RES ovarian
HCC-2998 colon = system: HCC-2998 colon
HT29 colon = system: HT29 colon
SF-268 CNS = system: SF-268 CNS
DU-145 prostate = system: DU-145 prostate
NCI-H522 lung = system: NCI-H522 lung
OVCAR-8 ovarian = system: OVCAR-8 ovarian
MDA-N = system: MDA-N
K-562 leukemia = system: K-562 leukemia

Row | Compound | TGI (UO-31 renal) | TGI (SR leukemia) | TGI (MALME-3M melanoma) | TGI (NCI/ADR-RES ovarian) | TGI (HCC-2998 colon) | TGI (HT29 colon) | TGI (SF-268 CNS) | TGI (DU-145 prostate) | TGI (NCI-H522 lung) | TGI (OVCAR-8 ovarian) | TGI (MDA-N) | TGI (K-562 leukemia)
1 | N#CCc1nc(C#N)c(N)o1 | > 100 µM | > 100 µM | > 100 µM | > 100 µM | > 100 µM | > 100 µM | > 100 µM | > 100 µM | > 100 µM | > 100 µM | > 100 µM | 
2 | NC(N)=N/N=C/c1nc2sccn2c1[N+](=O)[O-] | > 100 µM | > 100 µM | 26.3 µM | > 100 µM |  | 67.7 µM | > 100 µM | 57.1 µM | 89.9 µM | > 100 µM | 39.1 µM | 85.8 µM
3 | COC(=O)C(COC(=O)/C=C/c1ccc(OC(C)=O)c(OC(C)=O)c1)OC(=O)/C=C/c1ccc(OC(C)=O)c(OC(C)=O)c1 (centres undefined) | 21.8 µM | 11.1 µM | 45.6 µM | 50.5 µM | 43.4 µM | 19.7 µM | 64.2 µM | 24.7 µM | 26.7 µM | 26.4 µM | 21.7 µM | 31.2 µM
4 | CCCCCCCCCCCCCCCCNc1nc(=O)n(C2CC(O)C(CO)O2)cc1F (centres undefined) | 18.8 µM | 26.3 µM | 22.8 µM | 27.1 µM | 14.2 µM | 21.5 µM | 22.3 µM | 21.6 µM | 20.7 µM | 23.9 µM | 72.1 µM | 
5 | NC(=O)CC(Nc1ncc2c(n1)-c1ccccc1OC2)C(=O)O (centres undefined) | > 100 µM | > 100 µM | > 100 µM | > 100 µM |  | > 100 µM | > 100 µM | > 100 µM | > 100 µM | > 100 µM | > 100 µM | > 100 µM
6 | CC(C)(C)OC(=O)N1C(OP(=O)(Oc2ccccc2)Oc2ccccc2)=COc2cccnc21 | > 100 µM | 82.9 µM | 98.2 µM | > 100 µM | > 100 µM | > 100 µM | > 100 µM | > 100 µM | > 100 µM | > 100 µM | > 100 µM | > 100 µM
7 | CCN(CC)CCCNc1ccc2nnn3c4ccc(O)cc4c(=O)c1c23 | 6.27 µM | 21.8 µM | 26.4 µM | 22.9 µM | 23.4 µM | 14.1 µM | 18.6 µM | 24.1 µM | 24.3 µM | 12.9 µM | 20.9 µM | 53.3 µM
8 | O=C(NCCNCCO)N/N=C/c1ccc(Cl)cc1 | > 100 µM | > 100 µM | > 100 µM | > 100 µM | > 100 µM | > 100 µM | > 100 µM | > 100 µM | > 100 µM | > 100 µM | > 100 µM | > 100 µM
9 | CCOC(=O)C(Cc1ccccc1)(Cc1ccc(O)cn1)NC(=O)c1ccccc1 (centres undefined) | > 100 µM | > 100 µM | 48.8 µM | > 100 µM | > 100 µM | 81 µM | 61.7 µM | > 100 µM | 53.8 µM | > 100 µM | 23 µM | > 100 µM

— PubChem BioAssay (NCI)
